Ends that are not written are not given here.
Key:
CRF2R = target: T1, CRF2R (Homo sapiens, UniProt Q13324); experiment: CRF2R agonist activation (EC50 / Emax), called comparative CRF binding; format: cell-based; conditions: for Emax: read-out: CRF2R Emax; for EC50: read-out: CRF2R EC50
T1 sequence (Q13324 1-411): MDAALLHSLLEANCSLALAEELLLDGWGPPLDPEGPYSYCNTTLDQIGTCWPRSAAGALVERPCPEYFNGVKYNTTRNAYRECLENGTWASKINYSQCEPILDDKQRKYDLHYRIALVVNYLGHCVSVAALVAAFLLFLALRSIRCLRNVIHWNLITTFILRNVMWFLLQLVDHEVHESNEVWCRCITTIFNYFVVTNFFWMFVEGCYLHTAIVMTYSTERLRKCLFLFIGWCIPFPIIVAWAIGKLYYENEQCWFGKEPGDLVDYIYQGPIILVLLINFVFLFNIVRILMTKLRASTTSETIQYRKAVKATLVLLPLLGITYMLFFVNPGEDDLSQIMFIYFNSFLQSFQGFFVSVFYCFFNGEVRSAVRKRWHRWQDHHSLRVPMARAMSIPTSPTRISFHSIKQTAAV
How it was run: (§1)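 Receptor-expressing cells are contacted with test peptide or the vehicle it is dissolved in. Lysates are then assayed for cAMP, or expression of a CRE-coupled reporter is quantitated. Engineered cells carrying receptor-G-protein fusions may replace full-length receptors.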

CRF1R = target: T2, CRF1R (Homo sapiens, UniProt P34998); experiment: CRF1R agonist activation (EC50 / Emax), called comparative CRF binding; format: cell-based; conditions: for Emax: read-out: CRF1R Emax; for EC50: read-out: CRF1R EC50
T2 sequence (P34998 24-415): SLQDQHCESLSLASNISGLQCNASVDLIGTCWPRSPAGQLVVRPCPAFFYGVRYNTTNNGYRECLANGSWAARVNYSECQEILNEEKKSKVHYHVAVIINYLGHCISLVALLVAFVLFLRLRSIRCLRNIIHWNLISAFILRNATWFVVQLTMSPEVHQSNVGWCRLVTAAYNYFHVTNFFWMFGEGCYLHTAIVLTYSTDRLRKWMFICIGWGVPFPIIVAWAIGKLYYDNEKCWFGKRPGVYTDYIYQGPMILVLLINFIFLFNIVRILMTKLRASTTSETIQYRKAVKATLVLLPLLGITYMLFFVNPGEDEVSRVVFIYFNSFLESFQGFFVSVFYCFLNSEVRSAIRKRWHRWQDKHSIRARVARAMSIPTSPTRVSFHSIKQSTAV
How it was run: as §1

| Substance | Emax (CRF2R) [%] | Emax (CRF1R) [%] | EC50 (CRF2R) [nM] | EC50 (CRF1R) [nM] |
| --- | --- | --- | --- | --- |
| NDDPPISIDLPLLLLRNMIEMARIENEREQAGLNAKYLAEV-NH2 [compound 268] | 59 | 14.2 |  |  |
| NDDPPISIDLPLQLLRNMIEMARIENEREQAGLNAKYLAEV-NH2 [compound 270] | 19.3 | 7.85 |  |  |
| NDDPPISIDLPLYLLRNMIEMARIENEREQAGLNAKYLAEV-NH2 [compound 271] | 69 | 80.7 | 48.1 | 815 |
| NDDPPISIDLPQYLLRNMIEMARIENEREQAGLNAKYLAEV-NH2 [compound 265] | 23.4 | 9.3 |  |  |
| NDDPPISIDLPTYLLRNMIEMARIENEREQAGLNAKYLAEV-NH2 [compound 266] | 19.4 | 4.45 |  |  |
| NDDPPISIDLPYYLLRNMIEMARIENEREQAGLNAKYLAEV-NH2 [compound 267] | 44.2 | 22.8 |  |  |
| SEEPPISLDLTFHLLREVLEMARAEQLAQQAHTNARILARV-NH2 [compound 161] | 88 | 77 |  |  |
| SEEPPISLDVPIGLLQEVLEMARAEQLAQQAHSNRKLMEII-NH2 [compound 162] | 7 | 11 |  |  |
| SQEIVLSLDVPIGLLREVLEMTKADQLAQQAHSNRKLLDIA-NH2 [compound 7] |  |  | ≥ 100 | ≥ 100 |
| SQEIVLSLDVPIGLLREVLEMTKADQLAQQAHSNRKLLDIA-NH2 [compound 152] | 19 | 4 |  |  |
| SQEPPISLDLPFELLREVLEMTKADQLAQQAHSNRKLLDIA-NH2 [compound 97] | 7.6 | 4.25 |  |  |
| SQEPPISLDLPFGLLREVLEMTKADQLAQQAHSNRKLLDIA-NH2 [compound 103] | 4.85 | 5.75 |  |  |
| SQEPPISLDLPFQLLREVLEMTKADQLAQQAHSNRKLLDIA-NH2 [compound 91] | 7.1 | 4 |  |  |
| SQEPPISLDLPFYLLREVLEMTKADQLAQQAHSNRKLLDIA-NH2 [compound 96] | 12.5 | 16.3 |  |  |
| SQEPPISLDLPIGLLREVLEMTKADQLAQQAHSNRKLLDIA-NH2 [compound 93] | 6.4 | 5 |  |  |
| SQEPPISLDLPIHLLREVLEMTKADQLAQQAHSNRKLLDIA-NH2 [compound 94] | 6.15 | 7.3 |  |  |
| SQEPPISLDLPIQLLREVLEMTKADQLAQQAHSNRKLLDIA-NH2 [compound 100] | 9.85 | 6.25 |  |  |
| SQEPPISLDLPLGLLREVLEMTKADQLAQQAHSNRKLLDIA-NH2 [compound 90] | 12.2 | 4 |  |  |
| SQEPPISLDLPLHLLREVLEMTKADQLAQQAHSNRKLLDIA-NH2 [compound 102] | 13.5 | 7.8 |  |  |
| SQEPPISLDLPLQLLREVLEMTKADQLAQQAHSNRKLLDIA-NH2 [compound 95] | 8.25 | 5.55 |  |  |
| SQEPPISLDLPLYLLREVLEMTKADQLAQQAHSNRKLLDIA-NH2 [compound 101] | 6.95 | 7.35 |  |  |
| SQEPPISLDLPTELLREVLEMTKADQLAQQAHSNRKIIDIA-NH2 [compound 92] | 15.8 | 4.6 |  |  |
| SQEPPISLDLPTGLLREVLEMTKADQLAQQAHSNRKLLDIA-NH2 [compound 98] | 5.5 | 4 |  |  |
| SQEPPISLDLPTHLLREVLEMTKADQLAQQAHSNRKLLDIA-NH2 [compound 99] | 4.35 | 4.35 |  |  |
| SQEPPISLDLPTQLLREVLEMTKADQLAQQAHSNRKLLDIA-NH2 [compound 105] | 9.15 | 5.2 |  |  |
| SQEPPISLDLPTYLLREVLEMTKADQLAQQAHSNRKLLDIA-NH2 [compound 106] | 6.1 | 4.8 |  |  |
| SQEPPISLDLTFGLLREVLEMTKADQLAQQAHSNRKLLDIA-NH2 [compound 88] | 12.6 | 11.2 |  |  |
| SQEPPISLDLTFHLLREVLEQARARAAREQATTNARILARV-NH2 [compound 157] | 60.6 | 91 |  |  |
| SQEPPISLDLTIGLLREVLEMTKADQLAQQAHSNRKLLDIA-NH2 [compound 86] | 8.1 | 4.6 |  |  |
| SQEPPISLDLTIHLLREVLEMTKADQLAQQAHSNRKLLDIA-NH2 [compound 87] | 14.7 | 5.3 |  |  |
